Measured values taken from US20190185518A9, “WARHEAD-CONTAINING PEPTIDOMIMETIC MACROCYCLES AS MODULATORS OF BFL-1” (AILERON Therapeutics, Inc., priority 2017, published 2019).
Starred links: 1 amine or outer side, 2 acyl side, 3 side chain; linkers in the order of their positions; H or OH if unused. Positions of bridges follow the written chain, without caps; N, C: chain ends. Non-standard residues stand in square brackets, D forms with d. Residues, ends and D or L forms follow the SMILES beside them. X1 = CC(C)CCC[C@H](N[*:1])C(=O)[*:2]; R8 = C=CCCCCCC[C@@](C)(N)C(=O)O; S5 = C=CCCC[C@](C)(N)C(=O)O

target: Bcl-xL (Homo sapiens, UniProt Q07817); experiment: Ki determination for Bcl-xL (BCL-2 family binding spectrum); conditions: read-out: Ki BCL-XL
From the text: (§1) To assess the binding and affinity of compounds that antagonize the interaction between a peptide and an acceptor protein, a fluorescence polarization assay (FPA) utilizing a fluoresceinated peptidomimetic macrocycle derived from a peptidomimetic precursor sequence is used, for example. The FPA technique measures the molecular orientation and mobility using polarized light and fluorescent tracer. […] A compound that antagonizes the interaction between the fluoresceinated peptidomimetic macrocycle and an acceptor protein will be detected in a competitive binding FPA experiment.
For example, putative antagonist compounds (1 nM to 1 mM) and a fluoresceinated peptidomimetic macrocycle (25 nM) are incubated with the acceptor protein (50 nM) in binding buffer (140 mM NaCl, 50 mM Tris-HCL, pH 7.4) for 30 minutes at room temperature. Antagonist binding activity is measured, for example, by fluorescence polarization on a luminescence spectrophotometer (e.g. Perkin-Elmer LS50B). Kd values may be determined by nonlinear regression analysis using, for example, Graphpad Prism software (GraphPad Software, Inc., San Diego, Calif.).

Sequence of Bcl-xL (Q07817 whole entry, species assumed): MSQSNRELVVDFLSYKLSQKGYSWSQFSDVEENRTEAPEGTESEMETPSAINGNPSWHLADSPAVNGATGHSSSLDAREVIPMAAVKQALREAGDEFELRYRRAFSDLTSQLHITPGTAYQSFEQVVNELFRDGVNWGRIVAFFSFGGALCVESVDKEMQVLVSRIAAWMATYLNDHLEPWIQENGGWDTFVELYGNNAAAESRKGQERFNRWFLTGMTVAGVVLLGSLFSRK

Ki | Structure (SMILES)
15.4 nM | CC[C@H](C)[C@H](NC(C)=O)C(=O)N[C@@H](Cc1c[nH]c2ccccc12)C(=O)N[C@H](C(=O)N[C@@H](C)C(=O)N[C@@H](CCC(N)=O)C(=O)N[C@@H](C)C(=O)N[C@@H](CC(C)C)C(=O)N[C@@H](CCCNC(=N)N)C(=O)N[C@]1(C)CCCCCCC=CCCC[C@@](C)(C(=O)N[C@@H](Cc2ccc(O)cc2)C(=O)N[C@@H](Cc2ccc(O)cc2)C(=O)N[C@@H](C)C(N)=O)NC(=O)[C@H](C)NC(=O)[C@H](Cc2ccccc2)NC(=O)[C@H](CCC(=O)O)NC(=O)[C@H](CC(=O)O)NC(=O)CNC(=O)[C@H]([C@@H](C)CC)NC1=O)[C@@H](C)CC [compound 1643] (Ac-IWIAQALR[R8]IGDEFA[S5]YYA-NH2; staple 9-16)
25.6 nM | CC[C@H](C)[C@H](NC(C)=O)C(=O)N[C@@H](Cc1c[nH]c2ccccc12)C(=O)N[C@H](C(=O)N[C@@H](C)C(=O)N[C@@H](C)C(=O)N[C@@H](C)C(=O)N[C@@H](CC(C)C)C(=O)N[C@@H](CCCNC(=N)N)C(=O)N[C@]1(C)CCCCCCC=CCCC[C@@](C)(C(=O)N[C@@H](Cc2ccc(O)cc2)C(=O)N[C@@H](Cc2ccc(O)cc2)C(=O)N[C@@H](C)C(N)=O)NC(=O)[C@H](CC(N)=O)NC(=O)[C@H](Cc2ccccc2)NC(=O)[C@H](C)NC(=O)[C@H](CC(=O)O)NC(=O)CNC(=O)[C@H]([C@@H](C)CC)NC1=O)[C@@H](C)CC [compound 1653] (Ac-IWIAAALR[R8]IGDAFN[S5]YYA-NH2; staple 9-16)
154 nM | CC[C@H](C)[C@H](NC(C)=O)C(=O)N[C@@H](Cc1c[nH]c2ccccc12)C(=O)N[C@H](C(=O)N[C@@H](C)C(=O)N[C@@H](CCC(N)=O)C(=O)N[C@@H](C)C(=O)N[C@@H](C)C(=O)N[C@@H](CCCNC(=N)N)C(=O)N[C@]1(C)CCCCCCC=CCCC[C@@](C)(C(=O)N[C@@H](Cc2ccc(O)cc2)C(=O)N[C@@H](Cc2ccc(O)cc2)C(=O)N[C@@H](C)C(N)=O)NC(=O)[C@H](CC(N)=O)NC(=O)[C@H](C)NC(=O)[C@H](C)NC(=O)[C@H](CC(=O)O)NC(=O)CNC(=O)[C@H]([C@@H](C)CC)NC1=O)[C@@H](C)CC [compound 1664] (Ac-IWIAQAAR[R8]IGDAAN[S5]YYA-NH2; staple 9-16)
7.7 nM | CC[C@H](C)[C@H](NC(C)=O)C(=O)N[C@@H](Cc1c[nH]c2ccccc12)C(=O)N[C@H](C(=O)N[C@@H](C)C(=O)N[C@@H](CCC(N)=O)C(=O)N[C@@H](C)C(=O)N[C@@H](CC(C)C)C(=O)N[C@@H](CCCNC(=N)N)C(=O)N[C@]1(C)CCCCCCC=CCCC[C@@](C)(C(=O)N[C@@H](Cc2ccc(O)cc2)C(=O)N[C@@H](Cc2ccc(O)cc2)C(=O)N[C@@H](C)C(N)=O)NC(=O)[C@H](CC(N)=O)NC(=O)[C@H](Cc2ccccc2)NC(=O)[C@H](C)NC(=O)[C@H](CC(=O)O)NC(=O)[C@H](C)NC(=O)[C@H]([C@@H](C)CC)NC1=O)[C@@H](C)CC [compound 1665] (Ac-IWIAQALR[R8]IADAFN[S5]YYA-NH2; staple 9-16)
25.6 nM | CC[C@H](C)[C@H](NC(C)=O)C(=O)N[C@@H](Cc1c[nH]c2ccccc12)C(=O)N[C@H](C(=O)N[C@@H](C)C(=O)N[C@@H](CCC(N)=O)C(=O)N[C@@H](C)C(=O)N[C@@H](CC(C)C)C(=O)N[C@@H](CCCNC(=N)N)C(=O)N[C@]1(C)CCCCCCC=CCCC[C@@](C)(C(=O)N[C@@H](Cc2ccc(O)cc2)C(=O)N[C@@H](Cc2ccc(O)cc2)C(=O)N[C@@H](C)C(N)=O)NC(=O)[C@H](CC(N)=O)NC(=O)[C@H](Cc2ccccc2)NC(=O)[C@H](CCC(N)=O)NC(=O)[C@H](CC(=O)O)NC(=O)CNC(=O)[C@H](Cc2ccccc2)NC1=O)[C@@H](C)CC [compound 1670] (Ac-IWIAQALR[R8]FGDQFN[S5]YYA-NH2; staple 9-16)
25.9 nM | CC[C@H](C)[C@H](NC(C)=O)C(=O)N[C@@H](Cc1c[nH]c2ccccc12)C(=O)N[C@@H](Cc1ccccc1)C(=O)N[C@@H](C)C(=O)N[C@@H](CCC(N)=O)C(=O)N[C@@H](C)C(=O)N[C@@H](CC(C)C)C(=O)N[C@@H](CCCNC(=N)N)C(=O)N[C@]1(C)CCCCCCC=CCCC[C@@](C)(C(=O)N[C@@H](Cc2ccc(O)cc2)C(=O)N[C@@H](Cc2ccc(O)cc2)C(=O)N[C@@H](C)C(N)=O)NC(=O)[C@H](CC(N)=O)NC(=O)[C@H](Cc2ccccc2)NC(=O)[C@H](CCC(N)=O)NC(=O)[C@H](CC(=O)O)NC(=O)CNC(=O)[C@H]([C@@H](C)CC)NC1=O [compound 1672] (Ac-IWFAQALR[R8]IGDQFN[S5]YYA-NH2; staple 9-16)
4 nM | CC[C@H](C)[C@H](NC(C)=O)C(=O)N[C@@H](Cc1c[nH]c2ccccc12)C(=O)N[C@H](C(=O)N[C@@H](C)C(=O)N[C@@H](CCC(N)=O)C(=O)N[C@@H](C)C(=O)N[C@@H](CC(C)C)C(=O)N[C@@H](CCCNC(=N)N)C(=O)N[C@]1(C)CCCCCCC=CCCC[C@@](C)(C(=O)N[C@@H](Cc2ccc(O)cc2)C(=O)N[C@@H](Cc2ccc(O)cc2)C(=O)N[C@@H](C)C(N)=O)NC(=O)[C@H](CC(N)=O)NC(=O)[C@H](Cc2ccccc2)NC(=O)[C@H](C)NC(=O)[C@H](CC(=O)O)NC(=O)CNC(=O)[C@H](CCCC(C)C)NC1=O)[C@@H](C)CC [compound 1702] (Ac-IWIAQALR[R8][X1]GDAFN[S5]YYA-NH2; staple 9-16)

target: Mcl-1 (Homo sapiens, UniProt Q07820); experiment: Ki determination for Mcl-1 (BCL-2 family binding spectrum); conditions: read-out: Ki MCL-1
From the text: as §1
Antagonist binding activity is measured, for example, by fluorescence polarization on a luminescence spectrophotometer (e.g. Perkin-Elmer LS50B). Kd values may be determined by nonlinear regression analysis using, for example, Graphpad Prism software (GraphPad Software, Inc., San Diego, Calif.).

Sequence of Mcl-1 (Q07820 whole entry, species assumed): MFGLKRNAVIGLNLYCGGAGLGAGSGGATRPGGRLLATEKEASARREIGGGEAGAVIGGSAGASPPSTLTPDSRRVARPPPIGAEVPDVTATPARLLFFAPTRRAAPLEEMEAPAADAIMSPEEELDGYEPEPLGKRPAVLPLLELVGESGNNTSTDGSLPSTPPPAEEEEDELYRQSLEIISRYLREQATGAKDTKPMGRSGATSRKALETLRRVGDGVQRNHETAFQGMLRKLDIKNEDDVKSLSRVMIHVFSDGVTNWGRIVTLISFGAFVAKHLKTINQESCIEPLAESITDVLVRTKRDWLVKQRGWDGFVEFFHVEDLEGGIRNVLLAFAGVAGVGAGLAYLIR

Ki | Structure (SMILES)
2.2 nM | CC[C@H](C)[C@H](NC(C)=O)C(=O)N[C@@H](Cc1c[nH]c2ccccc12)C(=O)N[C@H](C(=O)N[C@@H](C)C(=O)N[C@@H](C)C(=O)N[C@@H](C)C(=O)N[C@@H](CC(C)C)C(=O)N[C@@H](CCCNC(=N)N)C(=O)N[C@]1(C)CCCCCCC=CCCC[C@@](C)(C(=O)N[C@@H](Cc2ccc(O)cc2)C(=O)N[C@@H](Cc2ccc(O)cc2)C(=O)N[C@@H](CC(=O)O)C(N)=O)NC(=O)[C@H](CC(N)=O)NC(=O)[C@H](Cc2ccccc2)NC(=O)[C@H](C)NC(=O)[C@H](CC(=O)O)NC(=O)CNC(=O)[C@H]([C@@H](C)CC)NC1=O)[C@@H](C)CC [compound 1760] (Ac-IWIAAALR[R8]IGDAFN[S5]YYD-NH2; staple 9-16)
1.4 nM | CC[C@H](C)[C@H](NC(C)=O)C(=O)N[C@@H](Cc1c[nH]c2ccccc12)C(=O)N[C@H](C(=O)N[C@@H](C)C(=O)N[C@@H](C)C(=O)N[C@@H](C)C(=O)N[C@@H](CC(C)C)C(=O)N[C@@H](CCCNC(=N)N)C(=O)N[C@]1(C)CCCCCCC=CCCC[C@@](C)(C(=O)N[C@@H](Cc2ccc(O)cc2)C(=O)N[C@@H](Cc2ccc(O)cc2)C(=O)N[C@@H](CCC(=O)O)C(N)=O)NC(=O)[C@H](CC(N)=O)NC(=O)[C@H](Cc2ccccc2)NC(=O)[C@H](C)NC(=O)[C@H](CC(=O)O)NC(=O)CNC(=O)[C@H]([C@@H](C)CC)NC1=O)[C@@H](C)CC [compound 1761] (Ac-IWIAAALR[R8]IGDAFN[S5]YYE-NH2; staple 9-16)
4.6 nM | CC[C@H](C)[C@H](NC(C)=O)C(=O)N[C@@H](Cc1c[nH]c2ccccc12)C(=O)N[C@H](C(=O)N[C@@H](C)C(=O)N[C@@H](C)C(=O)N[C@@H](C)C(=O)N[C@@H](CC(C)C)C(=O)N[C@@H](CCCNC(=N)N)C(=O)N[C@]1(C)CCCCCCC=CCCC[C@@](C)(C(=O)N[C@@H](Cc2ccc(O)cc2)C(=O)N[C@@H](Cc2ccc(O)cc2)C(=O)N[C@@H](CCC(N)=O)C(N)=O)NC(=O)[C@H](CC(N)=O)NC(=O)[C@H](Cc2ccccc2)NC(=O)[C@H](C)NC(=O)[C@H](CC(=O)O)NC(=O)CNC(=O)[C@H]([C@@H](C)CC)NC1=O)[C@@H](C)CC [compound 1762] (Ac-IWIAAALR[R8]IGDAFN[S5]YYQ-NH2; staple 9-16)
10.6 nM | CC[C@H](C)[C@H](NC(C)=O)C(=O)N[C@@H](Cc1c[nH]c2ccccc12)C(=O)N[C@H](C(=O)N[C@@H](C)C(=O)N[C@@H](C)C(=O)N[C@@H](C)C(=O)N[C@@H](CC(C)C)C(=O)N[C@@H](CCCNC(=N)N)C(=O)N[C@]1(C)CCCCCCC=CCCC[C@@](C)(C(=O)N[C@@H](Cc2ccc(O)cc2)C(=O)N[C@@H](Cc2ccc(O)cc2)C(=O)N[C@@H](Cc2c[nH]cn2)C(N)=O)NC(=O)[C@H](CC(N)=O)NC(=O)[C@H](Cc2ccccc2)NC(=O)[C@H](C)NC(=O)[C@H](CC(=O)O)NC(=O)CNC(=O)[C@H]([C@@H](C)CC)NC1=O)[C@@H](C)CC [compound 1764] (Ac-IWIAAALR[R8]IGDAFN[S5]YYH-NH2; staple 9-16)
6.6 nM | CC[C@H](C)[C@H](NC(C)=O)C(=O)N[C@@H](Cc1c[nH]c2ccccc12)C(=O)N[C@H](C(=O)N[C@@H](C)C(=O)N[C@@H](C)C(=O)N[C@@H](C)C(=O)N[C@@H](CC(C)C)C(=O)N[C@@H](CCCNC(=N)N)C(=O)N[C@]1(C)CCCCCCC=CCCC[C@@](C)(C(=O)N[C@@H](Cc2ccc(O)cc2)C(=O)N[C@@H](Cc2ccc(O)cc2)C(=O)N[C@@H](CCCCN)C(N)=O)NC(=O)[C@H](CC(N)=O)NC(=O)[C@H](Cc2ccccc2)NC(=O)[C@H](C)NC(=O)[C@H](CC(=O)O)NC(=O)CNC(=O)[C@H]([C@@H](C)CC)NC1=O)[C@@H](C)CC [compound 1766] (Ac-IWIAAALR[R8]IGDAFN[S5]YYK-NH2; staple 9-16)
11.6 nM | CC[C@H](C)[C@H](NC(C)=O)C(=O)N[C@@H](Cc1c[nH]c2ccccc12)C(=O)N[C@H](C(=O)N[C@@H](C)C(=O)N[C@@H](CCC(N)=O)C(=O)N[C@@H](C)C(=O)N[C@@H](CC(C)C)C(=O)N[C@@H](CCCNC(=N)N)C(=O)N[C@]1(C)CCCCCCC=CCCCC2(CCCC=CCCC[C@](C)(C(=O)N[C@@H](C)C(N)=O)NC(=O)[C@H](C)NC(=O)[C@H](Cc3ccc(O)cc3)NC(=O)[C@H](Cc3ccc(O)cc3)NC2=O)NC(=O)[C@H](CC(N)=O)NC(=O)[C@H](Cc2ccccc2)NC(=O)[C@H](CCC(=O)O)NC(=O)[C@H](CC(=O)O)NC(=O)CNC(=O)[C@H]([C@@H](C)CC)NC1=O)[C@@H](C)CC (stereo partly shown) [compound 1784]
